Data from patent US20250090507A1, “Methods of Treating Cancer With a B-RAF Inhibitor” (MapKure, LLC, priority 2022, published 2025).
Entries after “also recorded” stand apart in the source; their conditions may differ.

Columns and labels:
Log P = format: physicochemical
[1] = test system: patients with tumors harboring B-RAF or K-RAS/N-RAS mutations; experiment: Phase 1 study: tumor response by investigators using RECIST v1.1; format: in vivo, human
Experimental: Objective response rate was defined as the proportion of patients who had confirmed CR or PR, assessed by the investigator using RECIST v1.1.
Clinical benefit rate was defined as the proportion of patients with best overall response (BOR) of confirmed CR, PR, or SD lasting ≥16 weeks.
Tumor imaging were performed within 21 days prior to the first study treatment. Results of standard of care tests or examinations performed prior to obtaining informed consent and ≤21 days prior to the first administration of IMP may be used for the purposes of screening rather than repeating the standard of care tests. During the study, tumor imaging was performed approximately every 8 (±1) weeks in the first year and approximately every 12 (±1) weeks thereafter. Tumor assessments were required to be performed on schedule regardless of whether study treatment has been administered or held.
Tumor response was assessed by the investigators using RECIST v1.1. The same evaluator should perform assessments, if possible, to ensure internal consistency across visits.
For the analysis of ORR, DCR, and CBR, summary tables presenting the number and proportion of responders with the 2-sided exact (Clopper-Pearson) 95% CI for response rates were presented. Summary of each response category of the BOR (confirmed CR, confirmed PR, unconfirmed CR, unconfirmed PR, SD, or PD) were presented as well. Waterfall plots of maximum tumor shrinkage per patient were presented.
Treatment emergent adverse events (TEAEs) were graded per NCI CTCAE v5.0. Tumor responses were assessed by investigators using RECIST v1.1.

## O=C1CCc2c(Oc3ccc4c(c3)[C@H]3[C@H](NC(=O)Nc5cc(F)c(F)cc5F)[C@H]3O4)ccnc2N1 [Compound A, 1-((1S,1aS,6bS)-5-((7-oxo-5,6,7,8-tetrahydro-1,8-naphthyridin-4-yl)oxy)-1a,6b-dihydro-1H-cyclopropa[b]benzofuran-1-yl)-3-(2,4,5-trifluorophenyl)urea]
Log P
  logP: > 4.46
[1]; 33 efficacy evaluable patients
  clinical benefit rate: 42%
  disease control rate: 79%
  objective response rate: 18%
[1]; BRAF K601E/PIK3CA endometrial cancer
  Objective responders: 1
[1]; BRAF V600E LGSOC
  Objective responders: 1
[1]; BRAF V600E cholangiocarcinoma
  Objective responders: 1
[1]; BRAF V600E melanoma pts who progressed on prior BRAF/MEK and checkpoint inhibitors (1 CR, 1 PR)
  Objective responders: 2
[1]; Cohort 5 (40 mg QD)
  Patients evaluable for tumor response with PR at Week 8: 2 patients
[1]; FIG. 1, 2/2 CRC patients
  CRC patients with stable disease: 100%
[1]; FIG. 1, 4/5 responders
  responders that have melanoma: 80%
[1]; FIG. 1, 5/22 evaluable patients
  overall response rate: 22.7%
[1]; FIG. 1, 7/7 melanoma patients
  melanoma patients with stable disease, partial responses, or complete responses: 100%
[1]; FIG. 1, of 7 melanoma patients
  melanoma patients with partial responses: 3
  melanoma patients with stable disease: 3
[1]; FIG. 1, of 7 melanoma patients, 1 CT readout
  melanoma patients with complete responses: 1
[1]; KRAS G12D appendiceal cancer
  Objective responders: 1
[1]; NRAS G12S melanoma
  Objective responders: 1
[1]; NRAS Q61K melanoma
  Objective responders: 1
[1]; in 33 efficacy evaluable patients
  confirmed responses: 6
[1]; number of patients, 33 efficacy evaluable
  complete response: one
[1]; number of pts, 42 pts
  CR: 1
  SD≥24 weeks: 8
  cPR: 5
  uPR: 2
[1]; pts with no approved targeted therapy options / heavily pretreated patients
  Antitumor activity: Antitumor activity was observed; also recorded: encouraging anti-tumor activity was observed
